Data: patent US20250339436A1, “CRYSTALLINE FORMS OF MRTX1133” (MIRATI THERAPEUTICS, INC., priority 2024, published 2025)
“Also recorded” adds a separate entry of the source. Marks after values point to notes of the source that are not given here.

Experiments:
Assay type in all cases: physicochemical
[1] = Accelerated stability study of MRTX1133 amorphous form vs crystalline Forms VIII and IX; details: for stability under the conditions tested (conclusion): 25° C./60% RH and 40° C./75% RH; for trend of impurity values and assay results: all tested storage conditions
Method: Chemical stability and water content studies were conducted on amorphous MRTX1133 and MRTX1133 Forms VIII and IX according to well-known methods summarized below.
The stability studies of the amorphous form were done as follows.
The required amount was placed in a clear Class A glass bottle, 24 mL, with closed-top cap, sealed in opaque resealable Zipper bag. Per each storage condition there was one bottle, and the sampling was performed from the same bottle. Each bottle was labeled with protocol number, compound ID, lot number and storage condition.
The experimental conditions for stability testing of Forms VIII and IX were similar. However, the samples were placed in double LDPE bags filled with nitrogen protection, then placed into a heat-sealed foil bag, and into an HDPE container containing desiccant packs.

[2] = Bulk stability studies of MRTX1133 Forms II, VI, VIII and IX (solid state, 1-2 weeks); details: for Initial Purity by UPLC: before storage
Method: Stability studies of all four forms were conducted according to well-known methods. The results are summarized below in Tables 4-11.

[3] = Thermogravimetric analysis (TGA)
Method: Thermogravimetric Analysis (TGA)
Instrument: Discovery 5500
Parameters: Nitrogen Flow balance 10 mL/min; sample 25 mL/min; start temperature: ambient condition (below 35° C.); final temperature: 300° C.; heating rate: 10° C./min; sample mass ˜2-10 mg. […]

[4] = Dynamic vapor sorption (DVS); details: 25° C./95% RH
Method: Dynamic Vapor Sorption (DVS)
Instrument: Intrinsic, Advantage or Adventure;
Total gas flow: 200 sccm; oven temperature: 25° C., solvent: water; method: • Cycle: 40-0-95-0-40% RH • Stage Step: 10% • Equilibrium: 0.002 dm/dt (%/min) Minimum dm/dt stability duration: 60 min • Maximum dm/dt stage time: 360 min

[5] = 40° C./75% RH, 2M, by HPLC, listed as amorphous
[6] = 40° C./75% RH, 3M, by HPLC, listed as amorphous
[7] = 25° C./60% RH, open container, 1 week
[8] = 25° C./60% RH, open container, 2 weeks
[9] = 25° C./92.5% RH, open container, 1 week
[10] = 25° C./92.5% RH, open container, 2 weeks
[11] = 40° C./75% RH, open container, 1 week
[12] = 40° C./75% RH, open container, 2 weeks
[13] = 60° C., tight container, 1 week
[14] = 60° C., tight container, 2 weeks

Structure (SMILES): C#Cc1c(F)ccc2cc(O)cc(-c3ncc4c(N5CC6CCC(C5)N6)nc(OC[C@@]56CCCN5C[C@H](F)C6)nc4c3F)c12 [Amorphous]
- stability under the conditions tested (conclusion) [1]: not stable
- Moisture ([1]; 25° C./60% RH, 1M): 3.4 % w/w
- Assay ([1]; 25° C./60% RH, 1M, by HPLC): 89.5 w/w %
- Total Impurities ≥ 0.05% ([1]; 25° C./60% RH, 1M, by HPLC): 4.35 Area %
- Moisture ([1]; 25° C./60% RH, 2M): 4.2 % w/w
- Assay ([1]; 25° C./60% RH, 2M, by HPLC): 87.7 w/w %
- Total Impurities ≥ 0.05% ([1]; 25° C./60% RH, 2M, by HPLC): 4.74 Area %
- Moisture ([1]; 25° C./60% RH, 3M): 4.6 % w/w
- Assay ([1]; 25° C./60% RH, 3M, by HPLC): 86.1 w/w %
- Total Impurities ≥ 0.05% ([1]; 25° C./60% RH, 3M, by HPLC): 6.13 Area %
- Moisture ([1]; 40° C./75% RH, 1M): 2.7 % w/w
- Assay ([1]; 40° C./75% RH, 1M, by HPLC): 82.8 w/w %
- Total Impurities ≥ 0.05% ([1]; 40° C./75% RH, 1M, by HPLC): 8.03 Area %
- Moisture ([1]; 40° C./75% RH, 2M): 5.2 % w/w
- Assay ([1]; 40° C./75% RH, 2M, by HPLC): 70.1 w/w %
- Total Impurities ≥ 0.05% ([1]; 40° C./75% RH, 2M, by HPLC): 13.21 Area %
- Assay [1, 5]: 70 w/w %
- Total Impurities ≥ 0.05% [1, 5]: 13.2 Area %
- Moisture ([1]; 40° C./75% RH, 3M): 5.8 % w/w
- Assay ([1]; 40° C./75% RH, 3M, by HPLC): 61.3 w/w %
- Total Impurities ≥ 0.05% ([1]; 40° C./75% RH, 3M, by HPLC): 17.75 Area %
- Assay [1, 6]: 61 w/w %
- Total Impurities ≥ 0.05% [1, 6]: 17.8 Area %
- Moisture ([1]; T(0)): 2.9 % w/w
- Total Impurities ≥ 0.05% ([1]; T(0), by HPLC): 2.24 Area %
- Total Impurities ≥ 0.05% ([1]; T(0), by HPLC, listed as amorphous): 2.2 Area %
- Assay ([1]; T(0), by Q-NMR): 94.2^b w/w %
- Assay ([1]; T(0), by Q-NMR, listed as amorphous): 94 w/w %
- trend of impurity values and assay results [1]: substantial increases in impurity values and corresponding decreases in assay results

Structure (SMILES): C#Cc1c(F)ccc2cc(O)cc(-c3ncc4c(N5C[C@H]6CC[C@@H](C5)N6)nc(OC[C@@]56CCCN5C[C@H](F)C6)nc4c3F)c12 [Form IX, 4-(4-((1R,5S)-3,8-diazabicyclo[3.2.1]octan-3-yl)-8-fluoro-2-(((2R,7aS)-2-fluorohexahydro-1H-pyrrolizin-7a-yl)methoxy)pyrido[4,3-d]pyrimidin-7-yl)-5-ethynyl-6-fluoronaphthalen-2-ol]
- Bulk (UPLC) purity [2, 7]: 98.0%
- Bulk (UPLC) purity [2, 8]: 98.0%
- Bulk (XRPD) form [2, 8]: No form change
- Bulk color [2, 8]: no change of color
- Bulk (UPLC) purity [2, 9]: 97.9%
- Bulk (UPLC) purity [2, 10]: 98.1%
- Bulk (XRPD) form [2, 10]: No form change
- Bulk color [2, 10]: no change of color
- Bulk (UPLC) purity [2, 11]: 97.8%
- Bulk (XRPD) form [2, 11]: No form change
- Bulk (UPLC) purity [2, 12]: 98.0%
- Bulk (XRPD) form [2, 12]: No form change
- Bulk color [2, 12]: no change of color
- Bulk (UPLC) purity [2, 13]: 97.9%
- Bulk (UPLC) purity [2, 14]: 98.1%
- Bulk (XRPD) form [2, 14]: No form change
- Bulk color [2, 14]: no change of color
- Initial Purity by UPLC [2]: 97.9%
- stability under the conditions tested (conclusion) [1]: much more stable; also recorded: stable
- Moisture ([1]; 25° C./60% RH, 1M): 0.56 % w/w
- Assay ([1]; 25° C./60% RH, 1M, by HPLC): 98.0 w/w %
- Total Impurities ≥ 0.05% ([1]; 25° C./60% RH, 1M, by HPLC): 1.5 Area %
- Moisture ([1]; 25° C./60% RH, 2M): 0.65 % w/w
- Assay ([1]; 25° C./60% RH, 2M, by HPLC): 97.6 w/w %
- Total Impurities ≥ 0.05% ([1]; 25° C./60% RH, 2M, by HPLC): 1.4 Area %
- Moisture ([1]; 25° C./60% RH, 3M): 0.70 % w/w
- Assay ([1]; 25° C./60% RH, 3M, by HPLC): 98.2 w/w %
- Total Impurities ≥ 0.05% ([1]; 25° C./60% RH, 3M, by HPLC): 1.7 Area %
- Moisture ([1]; 25° C./60% RH, 6M): 0.66 % w/w
- Assay ([1]; 25° C./60% RH, 6M, by HPLC): 98.5 w/w %
- Total Impurities ≥ 0.05% ([1]; 25° C./60% RH, 6M, by HPLC): 1.7 Area %
- moisture content trend ([1]; 40° C./75% RH): relatively stable
- Moisture ([1]; 40° C./75% RH, 1M): 0.56 % w/w
- Assay ([1]; 40° C./75% RH, 1M, by HPLC): 97.6 w/w %
- Total Impurities ≥ 0.05% ([1]; 40° C./75% RH, 1M, by HPLC): 1.8 Area %
- Moisture ([1]; 40° C./75% RH, 2M): 0.63 % w/w
- Assay ([1]; 40° C./75% RH, 2M, by HPLC): 97.3 w/w %
- Total Impurities ≥ 0.05% ([1]; 40° C./75% RH, 2M, by HPLC): 1.8 Area %
- Moisture ([1]; 40° C./75% RH, 3M): 0.66 % w/w
- Assay ([1]; 40° C./75% RH, 3M, by HPLC): 96.5 w/w %
- Total Impurities ≥ 0.05% ([1]; 40° C./75% RH, 3M, by HPLC): 2.0 Area %
- Moisture ([1]; 40° C./75% RH, 6M): 0.70 % w/w
- Assay ([1]; 40° C./75% RH, 6M, by HPLC): 96.9 w/w %
- Total Impurities ≥ 0.05% ([1]; 40° C./75% RH, 6M, by HPLC): 2.3 Area %
- Moisture ([1]; T(0)): 0.94 % w/w
- Assay ([1]; T(0), by HPLC): 96.2 w/w %
- Total Impurities ≥ 0.05% ([1]; T(0), by HPLC): 1.2 Area %
- trend of impurity values and assay results [1]: no increases in impurity values and no decreases in assay results
- onset of degradation as estimated by TGA [3]: about 190 °C
- weight loss observed by TGA ([3]; before 190° C. (onset of degradation)): about 0.5%
- weight loss observed by TGA ([3]; before 190° C. (onset of degradation), listed as MRTX1133 Form IX): 0.5% weight loss observed

Structure (SMILES): C#Cc1c(F)ccc2cc(O)cc(-c3ncc4c(N5C[C@H]6CC[C@@H](C5)N6)nc(OC[C@@]56CCCN5C[C@H](F)C6)nc4c3F)c12 [Form VIII, 4-(4-((1R,5S)-3,8-diazabicyclo[3.2.1]octan-3-yl)-8-fluoro-2-(((2R,7aS)-2-fluorohexahydro-1H-pyrrolizin-7a-yl)methoxy)pyrido[4,3-d]pyrimidin-7-yl)-5-ethynyl-6-fluoronaphthalen-2-ol]
- Bulk (UPLC) purity [2, 7]: 98.0%
- Bulk (UPLC) purity [2, 8]: 98.0%
- Bulk (XRPD) form [2, 8]: No form change
- Bulk color [2, 8]: no change of color
- Bulk (UPLC) purity [2, 9]: 98.1%
- Bulk (UPLC) purity [2, 10]: 98.0%
- Bulk (XRPD) form [2, 10]: No form change
- Bulk color [2, 10]: no change of color
- Bulk (UPLC) purity [2, 11]: 98.0%
- Bulk (XRPD) form [2, 11]: No form change
- Bulk (UPLC) purity [2, 12]: 98.1%
- Bulk (XRPD) form [2, 12]: No form change
- Bulk color [2, 12]: no change of color
- Bulk (UPLC) purity [2, 13]: 98.1%
- Bulk (UPLC) purity [2, 14]: 98.1%
- Bulk (XRPD) form [2, 14]: No form change
- Bulk color [2, 14]: no change of color
- Initial Purity by UPLC [2]: 98.0%
- stability under the conditions tested (conclusion) [1]: much more stable; also recorded: stable
- Moisture ([1]; 25° C./60% RH, 1M): 0.64 % w/w
- Assay ([1]; 25° C./60% RH, 1M, by HPLC): 96.8 w/w %
- Total Impurities ≥ 0.05% ([1]; 25° C./60% RH, 1M, by HPLC): 2.1 Area %
- Moisture ([1]; 25° C./60% RH, 3M): 0.49 % w/w
- Assay ([1]; 25° C./60% RH, 3M, by HPLC): 97.3 w/w %
- Total Impurities ≥ 0.05% ([1]; 25° C./60% RH, 3M, by HPLC): 2.1 Area %
- Moisture ([1]; 25° C./60% RH, 6M): 0.53 % w/w
- Assay ([1]; 25° C./60% RH, 6M, by HPLC): 96.4 w/w %
- Total Impurities ≥ 0.05% ([1]; 25° C./60% RH, 6M, by HPLC): 1.9 Area %
- moisture content trend ([1]; 40° C./75% RH): relatively stable
- Moisture ([1]; 40° C./75% RH, 1M): 0.62 % w/w
- Assay ([1]; 40° C./75% RH, 1M, by HPLC): 96.6 w/w %
- Total Impurities ≥ 0.05% ([1]; 40° C./75% RH, 1M, by HPLC): 2.2 Area %
- Moisture ([1]; 40° C./75% RH, 3M): 0.54 % w/w
- Assay ([1]; 40° C./75% RH, 3M, by HPLC): 97.4 w/w %
- Total Impurities ≥ 0.05% ([1]; 40° C./75% RH, 3M, by HPLC): 2.3 Area %
- Moisture ([1]; 40° C./75% RH, 6M): 0.78 % w/w
- Assay ([1]; 40° C./75% RH, 6M, by HPLC): 96.1 w/w %
- Total Impurities ≥ 0.05% ([1]; 40° C./75% RH, 6M, by HPLC): 2.2 Area %
- Moisture ([1]; T(0)): 0.55 % w/w
- Assay ([1]; T(0), by HPLC): 96.9 w/w %
- Total Impurities ≥ 0.05% ([1]; T(0), by HPLC): 2.5 Area %
- trend of impurity values and assay results [1]: no increases in impurity values and no decreases in assay results
- water uptake by DVS [4]: about 1.3%
- water uptake by DVS ([4]; listed as MRTX1133 Form VIII): 1.3% water uptake at
- onset of degradation as estimated by TGA [3]: about 180 °C
- weight loss observed by TGA ([3]; before 180° C. (onset of degradation)): about 0.7%
- weight loss observed by TGA ([3]; before 180° C. (onset of degradation), listed as MRTX1133 Form VIII): 0.7% weight loss observed
